The numbers were not newly measured in patent publication US12059506B2, “Coated implantable device” (NOBIL BIO RICERCHE S.R.L., priority 2017, dated 2024), which cites them from elsewhere.

Molecules are shown by their SMILES.

The conditions of this series: aqueous phase.

With `C[C@@H]1O[C@@H](Oc2c(-c3ccc(O)c(O)c3)oc3cc(O)cc(O)c3c2=O)[C@H](O)[C@H](O)[C@H]1O` [quercitrin], the “solubility in water” value is “insoluble”.
